From article PMC4436313, “Novel Heparan Sulfate-Binding Peptides for Blocking Herpesvirus Entry” (PLoS ONE, 2015)
Ends that are not written are not given here.

Assays:
[1] = tested on: HCMV TB40/E-pp150-GFP adsorption to HFF cells; assay: Flow cytometric analysis of attached virus; type: cell-based, Human cytomegalovirus; conditions: peptide 100μM, HFF cells at 4°C, 1/2 h, then HCMV TB40/E pp150-GFP MOI 10 for 1h; GFP MFI vs PBS treated cells; 3 replicates
Procedure: HFF cells were grown in a 24 well dish and allowed to reach ~80% confluency. The cells were cooled to 4°C to prevent virus internalization before addition of peptide (100μM) and incubated for ½ h. Following the incubation, HCMV TB40/E pp150-GFP was added (MOI 10) at 4°C and incubated for 1h. Following the incubation, cells were removed from the wells using non-enzymatic cell stripper solution (Corning), fixed (with paraformaldehyde) and the data acquired using a BD FACS Calibur flowcytometer (BD Biosciences). The data was analyzed using FlowJo software (TreeStar).
Fig 5 Peptide p5+14 blocks adsorption of MCMV. (A) MCMV was preincubated with p5+14 peptide (100 μM) before diluting the virus/peptide to an ineffective peptide concentration (1 μM) and assayed in the plaque reduction assay as described in materials and methods. As a control, virus and peptide (100 μM) were added to cells simultaneously. […] Plaque reduction was measured in a plaque reduction assay. […] (C) Adsorption of HCMV TB40/E-pp150-GFP (MOI 10) fusion protein expressing HCMV was measured via flowcytometry in the presence of p5+14 (green), control peptide CGGY-p5G (orange) and PBS (blue). […] Inset is a scatter plot of the mean fluorescence intensity (MFI) for GFP with the line representing average of 3 replicates +/- SD for the different treatments.

MEF 10.1 cells = assay: Visualization of bound biotinylated peptide by fluorescence microscopy; type: binding, Mouse; conditions: biotinylated peptide 1.6 μg/mL in PBS overnight at 4°C, fixed MEF cells, Alexa Fluor 594-conjugated streptavidin
Procedure: Coverslips with fixed MEF cells were prepared, washed in PBS, and blocked with 1% BSA/PBS for 5 min. Following a PBS wash, the nuclei were stained using Hoechst (Life Technologies Molecular Probes, Grand Island, NY) 1:100 in H2O for 30 min at 37°C. Cells were then blocked using a casein block solution (Scytek) for 5 min, AVIDIN/Biotin blocks (VECTOR) for 20 min each at room temperature (RT) followed by a 5 min PBS wash. Biotinylated p5+14 or CGGY-p5G (control) at 1.6 μg/mL in PBS was added and incubated overnight at 4°C. Following a PBS wash Alexa Fluor 594-conjugated streptavidin (Molecular Probes) was added at a 1:200 dilution in PBS for 1h at RT. Cells were then permeabilized with 0.2% Triton X-100 (Sigma) in PBS for 10 min at RT and washed with a solution of 1% BSA in PBS for 30 min. The cells were then stained with Alexa Fluor 488-conjugated phalloidin (Molecular Probes) at a 1:100 dilution of stock in 1% BSA/PBS, for 45 min at RT to visualize actin filaments. Slides were cover-slipped using a fluorescent mounting medium (Dako) to minimize photobleaching.
Fig 2 p5+14 binding to cells is charge dependent. (A) Predicted α-helix structure of peptide p5+14 based on ITASSER modeling. (B) Biotinylated peptide p5+14 (left panel) or CGGY-p5G (right panel) was added to MEF 10.1 cells followed by addition of Alexa Fluor 594-conjugated streptavidin (red). […]

[2] = Self-aggregation of peptide (data not shown); type: physicochemical
MCMV [3] = conditions: for Plaque Reduction (Average from Fig 1): peptide 500 μg/ml, incubated with MEF 10.1 cells 30 min prior to MCMV (~100 pfu/well), percent reduction vs PBS-treated control, three independent experiments, at least three replicates each
Procedure: Peptides were screened for their ability to reduce viral infection using a plaque reduction assay. Cells were cultured in 12-well (VERO) or 24-well culture plates (MEF 10.1 and HFF). When cells reached ~80% confluence the media was removed and washed once with PBS before addition of peptide. As a control, cells were incubated with PBS alone. After a 30 min incubation with peptide in PBS, virus (~100 pfu/well for MCMV and ~30–40 pfu/well for HCMV and HSV) was added and incubated for another 90 min (HSV and HCMV) or 60 min (MCMV). Following virus incubation the peptide/virus mixture was removed and replaced with 0.75% carboxymethyl cellulose (Sigma Aldrich, St. Louis, MO) (CMC) + complete media (DMEM + P/S + L-Gln) for MCMV and HSV experiments or 0.5% agarose (Lonza, Rockland, ME) in complete media for HCMV experiments. The plates were incubated at 37° C in 5% CO2 for 4 days and when plaques began to develop, plates were stained with Coomassie stain (AMRESCO, Solon, Ohio). Due to the inability of HCMV to form distinct plaques on HAEC and ARPE-19 cells, infection in these cell types was measured by counting mCherry positive foci 14 days post infection. Plaques were counted manually using a dissection microscope. Data was analyzed using Prism 5.0 (GraphPad Software, La Jolla, CA). Data were expressed as percent infection (100 x (number of plaques after treatment/ the number of plaques in the PBS-treated wells)).
Seven synthetic peptides based on the structure of peptide p5 were screened for their ability to reduce MCMV infection in vitro (Table 1). In the initial screening assays all peptides were tested at a single concentration (500 μg/ml) using a plaque-reduction assay, in which mouse embryonic fibroblasts were incubated with the peptides for 30 min prior to the addition of virus.
(A) Peptides (500 μg/ml) with different net charges and lengths were incubated with cells 30 min prior to addition of MCMV (~100 pfu/well). Bars represent the average of the percent reduction in infection compared to PBS-treated control from three independent experiments with at least three replicates in each + SD. (B) p5+14 and CGGY-p5G (control peptide) were serially diluted and assayed in a plaque reduction assay as described in materials and methods.

MCMV [4] = assay: Heparin blockade of peptide-mediated plaque reduction; type: cell-based, murine CMV (MCMV)
Procedure: Peptide p5+14 (100 μM) was pre-incubated with heparin sodium salt (Acros Organics, NJ) at different concentrations for 1 h at 37°C. This heparin/peptide mix was added to the cells and incubated for 30 min at 37°C. Following the incubation, supernatant was aspirated and cells washed once with PBS to remove unbound/excess heparin or peptide. The cells were subsequently infected with ~100 pfu/well of MCMV. To test whether heparin treatment of cells interferes with virus infection, MEF 10.1 cells in a 24 well dish were pre-incubated with different concentrations of heparin for 1 hour and washed as described above. Following this pre-incubation, infection was initiated as described above. Finally to test the effect of heparin treatment on the infectivity of virus, MCMV was incubated with different concentrations of heparin for 1h before infecting cells. For all treatments, virus was removed 1h post infection and cells were overlaid with CMC. Plates were incubated for 4 days before staining and counting the plaques.
Fig 3 Soluble heparin interferes with peptide inhibition of virus infection. The effect of heparin on the activity of peptide and MCMV viral infectivity in vitro when (A) pre-incubated with the peptide (100 μM), (B) incubated with the cells before adding virus, and (C) pre-incubated with virus alone in a plaque reduction assay. […]

Substance: CGGYSGAQGAQAGQAGQAQGAQGAQAGQAGQ [CGGY-p5G, uncharged p5 variant, replaces Lys with Gly throughout; control peptide]
- Fluorescent virus attached to the cell surface [1]: no reduction in fluorescence
- Binding of biotinylated peptide to mouse fibroblasts (MEF 10.1 cells): did not bind

Substance: CGGYSKAQKAQAKQAKQAQKAQKAQAKQAKQ [CGGY-p5]
- Self-aggregation [2]: prone to self-aggregation
- Plaque Reduction (Average from Fig 1) (MCMV [3]): ~61%

Substance: GGGYSKAQKAQAKQAKQAQKAQKAQAKQAKQ [p5]
- Plaque Reduction (Average from Fig 1) (MCMV [3]): ~53%

Substance: GGGYSRAQRAQARQARQAQRAQRAQARQARQ [p5R]
- Blocking of viral infection compared to peptide p5 (MCMV [3]; from Fig 1A, 500 μg/ml, MCMV): 2 fold
- Plaque Reduction (Average from Fig 1) (MCMV [3]): ~75%

Substance: GGGYSKAQKAQAKQAKQAQKAQKAQAKQAKQAQKAQKAQAKQAKQ [p5+14]
- IC50 (MCMV [3]; read-out: IC50, reduction of MCMV infection, serial dilution of peptide, plaque reduction assay, MEF 10.1): 5.2 µM

Substance: MPRRR RIRRR QK [G2, reference compound]
- Reduction in MCMV infection at 10 μM (MCMV [3]; peptide 10 μM, plaque reduction assay, comparison p5+14 vs G2): ineffective
- Inhibition of MCMV infection at 100 μM (MCMV [3]; peptide 100 μM, plaque reduction assay, comparison p5+14 vs G2): effectively inhibited MCMV infection

Substance: heparin sodium salt
- Reduction of infection, heparin pre-incubated with MCMV (MCMV [4]; MCMV incubated with heparin 1 h without peptide, all heparin concentrations ≥ 2 μg/mL): > 80%
- MCMV infection after pre-incubation of the cells with heparin (MCMV [4]; MEF 10.1 cells pre-incubated with heparin 1 hour and washed prior to virus addition, no peptide): did not alter MCMV infection
